Species: Rattus norvegicus
Test: DrugMatrix - Regimen: Daily Repeat
Assay type: toxicity, organism-based, Sprague-Dawley
Parameters: regimen Daily Repeat, gender Male, age 6-8 weeks
Conditions: in vivo, sc, route subcutaneous, […]; for ABSOLUTE BASOPHIL / ABSOLUTE EOSINOPHIL / ABSOLUTE LYMPHOCYTE / ABSOLUTE MONOCYTE / ABSOLUTE SEGMENTED NEUTROPHIL / BASOPHIL / EOSINOPHIL / ERYTHROCYTE COUNT / HEMATOCRIT / HEMOGLOBIN / LEUKOCYTE COUNT / LYMPHOCYTE / MEAN CORPUSCULAR HEMOGLOBIN / MEAN CORPUSCULAR HEMOGLOBIN CONCENTRATION / MEAN CORPUSCULAR VOLUME / MONOCYTE / NEUTROPHIL / NUCLEATED RED BLOOD CELLS / PLATELET COUNT: tissue Blood; for ALANINE AMINOTRANSFERASE / ALBUMIN / ALKALINE PHOSPHATASE / ASPARTATE AMINOTRANSFERASE / BLOOD UREA NITROGEN / CARBON DIOXIDE / CHLORIDE / CHOLESTEROL / CREATINE PHOSPHOKINASE / CREATININE / GLUCOSE / LACTATE DEHYDROGENASE / LIPASE / PHOSPHORUS / POTASSIUM / SODIUM / TOTAL BILIRUBIN / TOTAL PROTEIN / URIC ACID: tissue Plasma
[1] = 0 mg/kg, 72 h, dose level Control, time 3 day
[2] = 0 mg/kg, 120 h, dose level Control, time 5 day
[3] = 56 mg/kg, 72 h, dose level M1, time 3 day

`O=C(Nc1ccc(Br)cc1)c1cc(Br)cc(Br)c1O` [TRIBROMSALAN] was tested, and the “ABSOLUTE BASOPHIL” value [1] was 0 CELLS/uL, the “ABSOLUTE EOSINOPHIL” value [1] was 42.67 CELLS/uL and the “ABSOLUTE LYMPHOCYTE” value [1] was 10202 CELLS/uL. For the same compound, the “ABSOLUTE MONOCYTE” value [1] was 261.5 CELLS/uL, the “ABSOLUTE SEGMENTED NEUTROPHIL” value [1] was 2193.83 CELLS/uL and the BASOPHIL [1] was 0%. The EOSINOPHIL [1] was 0.33%, the “ERYTHROCYTE COUNT” value [1] was 5.63 x10E6/uL and the HEMATOCRIT [1] was 35.35%. The HEMOGLOBIN [1] was 13.07 G/DL, the “LEUKOCYTE COUNT” value [1] was 12.7 x10E3/uL and the LYMPHOCYTE [1] was 81.17%. The “MEAN CORPUSCULAR HEMOGLOBIN” value [1] was 23.23 pg, the “MEAN CORPUSCULAR HEMOGLOBIN CONCENTRATION” value [1] was 36.97 G/DL and the “MEAN CORPUSCULAR VOLUME” value [1] was 62.82 fL. For the same compound, the MONOCYTE [1] was 2%, the NEUTROPHIL [1] was 16.5% and the “NUCLEATED RED BLOOD CELLS” value [1] was 0 /100WBC. The “PLATELET COUNT” value [1] was 1180.33 x10E3/uL, the “ALANINE AMINOTRANSFERASE” value [1] was 48.67 u/L and the ALBUMIN [1] was 4.08 G/DL. The “ALKALINE PHOSPHATASE” value [1] was 360.67 u/L, the “ASPARTATE AMINOTRANSFERASE” value [1] was 85.5 u/L and the “BLOOD UREA NITROGEN” value [1] was 17.83 mg/dL. The “CARBON DIOXIDE” value [1] was 26.17 mmol/L, the CHLORIDE [1] was 101.83 MEQ/L and the CHOLESTEROL [1] was 71 mg/dL. For the same compound, the “CREATINE PHOSPHOKINASE” value [1] was 515.17 u/L, the CREATININE [1] was 0.22 mg/dL and the GLUCOSE [1] was 192.5 mg/dL. The “LACTATE DEHYDROGENASE” value [1] was 214.67 u/L, the LIPASE [1] was 8.5 u/L and the PHOSPHORUS [1] was 12.95 mg/dL. For the same compound, the POTASSIUM [1] was 6.39 MEQ/L, the SODIUM [1] was 142.38 MEQ/L and the “TOTAL BILIRUBIN” value [1] was 0.18 mg/dL. The “TOTAL PROTEIN” value [1] was 5.95 G/DL, the “URIC ACID” value [1] was 1.83 mg/dL and the “ABSOLUTE BASOPHIL” value [2] was 0 CELLS/uL. The “ABSOLUTE EOSINOPHIL” value [2] was 188.5 CELLS/uL, the “ABSOLUTE LYMPHOCYTE” value [2] was 12360.83 CELLS/uL and the “ABSOLUTE MONOCYTE” value [2] was 64.33 CELLS/uL. The “ABSOLUTE SEGMENTED NEUTROPHIL” value [2] was 1986.33 CELLS/uL, the BASOPHIL [2] was 0% and the EOSINOPHIL [2] was 1.33%. The “ERYTHROCYTE COUNT” value [2] was 5.52 x10E6/uL, the HEMATOCRIT [2] was 35.82% and the HEMOGLOBIN [2] was 13.25 G/DL. The “LEUKOCYTE COUNT” value [2] was 14.6 x10E3/uL, the LYMPHOCYTE [2] was 84.5% and the “MEAN CORPUSCULAR HEMOGLOBIN” value [2] was 24.05 pg. For the same compound, the “MEAN CORPUSCULAR HEMOGLOBIN CONCENTRATION” value [2] was 36.98 G/DL, the “MEAN CORPUSCULAR VOLUME” value [2] was 64.97 fL and the MONOCYTE [2] was 0.5%. For the same compound, the NEUTROPHIL [2] was 13.67%, the “NUCLEATED RED BLOOD CELLS” value [2] was 0 /100WBC and the “PLATELET COUNT” value [2] was 1297.83 x10E3/uL. For the same compound, the “ALANINE AMINOTRANSFERASE” value [2] was 51.17 u/L, the ALBUMIN [2] was 4.08 G/DL and the “ALKALINE PHOSPHATASE” value [2] was 393.17 u/L. The “ASPARTATE AMINOTRANSFERASE” value [2] was 111 u/L, the “BLOOD UREA NITROGEN” value [2] was 18.17 mg/dL and the “CARBON DIOXIDE” value [2] was 25 mmol/L. The CHLORIDE [2] was 105.17 MEQ/L, the CHOLESTEROL [2] was 65.5 mg/dL and the “CREATINE PHOSPHOKINASE” value [2] was 911.5 u/L. For the same compound, the CREATININE [2] was 0.21 mg/dL, the GLUCOSE [2] was 183 mg/dL and the “LACTATE DEHYDROGENASE” value [2] was 189 u/L. For the same compound, the LIPASE [2] was 8.33 u/L, the PHOSPHORUS [2] was 12.78 mg/dL and the POTASSIUM [2] was 6.05 MEQ/L. The SODIUM [2] was 144.57 MEQ/L, the “TOTAL BILIRUBIN” value [2] was 0.25 mg/dL and the “TOTAL PROTEIN” value [2] was 5.83 G/DL. The “URIC ACID” value [2] was 1.58 mg/dL, the “ABSOLUTE BASOPHIL” value [3] was 0 CELLS/uL and the “ABSOLUTE EOSINOPHIL” value [3] was 245 CELLS/uL. For the same compound, the “ABSOLUTE LYMPHOCYTE” value [3] was 12670.67 CELLS/uL, the “ABSOLUTE MONOCYTE” value [3] was 0 CELLS/uL and the “ABSOLUTE SEGMENTED NEUTROPHIL” value [3] was 1651 CELLS/uL. For the same compound, the BASOPHIL [3] was 0%, the EOSINOPHIL [3] was 1.67% and the “ERYTHROCYTE COUNT” value [3] was 5.81 x10E6/uL. For the same compound, the HEMATOCRIT [3] was 35.97%, the HEMOGLOBIN [3] was 13.47 G/DL and the “LEUKOCYTE COUNT” value [3] was 14.57 x10E3/uL. For the same compound, the LYMPHOCYTE [3] was 87.33%, the “MEAN CORPUSCULAR HEMOGLOBIN” value [3] was 23.27 pg and the “MEAN CORPUSCULAR HEMOGLOBIN CONCENTRATION” value [3] was 37.43 G/DL. The “MEAN CORPUSCULAR VOLUME” value [3] was 62.03 fL, the MONOCYTE [3] was 0% and the NEUTROPHIL [3] was 11%. The “NUCLEATED RED BLOOD CELLS” value [3] was 0 /100WBC, the “PLATELET COUNT” value [3] was 1364.67 x10E3/uL and the “ALANINE AMINOTRANSFERASE” value [3] was 47.67 u/L. The ALBUMIN [3] was 4.2 G/DL, the “ALKALINE PHOSPHATASE” value [3] was 292.33 u/L and the “ASPARTATE AMINOTRANSFERASE” value [3] was 78.67 u/L. For the same compound, the “BLOOD UREA NITROGEN” value [3] was 14.67 mg/dL, the “CARBON DIOXIDE” value [3] was 25 mmol/L and the CHLORIDE [3] was 102.33 MEQ/L. The CHOLESTEROL [3] was 80.67 mg/dL, the “CREATINE PHOSPHOKINASE” value [3] was 290.33 u/L and the CREATININE [3] was 0.19 mg/dL. The GLUCOSE [3] was 173.67 mg/dL, the “LACTATE DEHYDROGENASE” value [3] was 127.33 u/L and the LIPASE [3] was 8.33 u/L. For the same compound, the PHOSPHORUS [3] was 12.7 mg/dL, the POTASSIUM [3] was 5.88 MEQ/L and the SODIUM [3] was 145.47 MEQ/L. The “TOTAL BILIRUBIN” value [3] was 0.2 mg/dL, the “TOTAL PROTEIN” value [3] was 6.23 G/DL and the “URIC ACID” value [3] was 1.67 mg/dL.

— ChEMBL document CHEMBL3885881, “DrugMatrix”
